Here are results for 12 compounds from US10065943B2, “Pyrrolidine derivatives as angiotensin II type 2 antagonists” (NOVARTIS AG, priority 2015, dated 2018).

Molecules are shown by their SMILES.

This assay has as its target T1, human AT2 receptor (Homo sapiens, UniProt P50052).
T1 construct: membranes prepared in house
T1 sequence (P50052 1-363): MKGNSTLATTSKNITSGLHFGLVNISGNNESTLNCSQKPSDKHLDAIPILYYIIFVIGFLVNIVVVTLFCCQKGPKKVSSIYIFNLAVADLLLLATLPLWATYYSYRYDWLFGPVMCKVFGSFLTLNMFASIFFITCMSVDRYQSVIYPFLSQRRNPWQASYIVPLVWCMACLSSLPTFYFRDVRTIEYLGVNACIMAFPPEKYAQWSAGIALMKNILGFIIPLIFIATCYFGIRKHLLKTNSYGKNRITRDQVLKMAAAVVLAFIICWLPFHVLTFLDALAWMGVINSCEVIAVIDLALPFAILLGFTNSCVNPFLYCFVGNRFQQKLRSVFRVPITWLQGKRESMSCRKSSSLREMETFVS
In words: AT2 receptor binding ([125I]CGP 42112A displacement, CHO-K1 membranes). The conditions noted are these: [125I]CGP 42112A 0.05 nM, membranes of CHO-K1 cells expressing human AT2 receptor; Ki from IC50 by Cheng-Prussoff equation; read-out: Ki. An excerpt: Reagents were purchased from Sigma-Aldrich, unless otherwise specified. Dialyzed fetal bovine serum (FBS) was from Life Technologies (cat. no. 10073772). Valiscreen® human angiotensin AT2 receptor cell line (cat. no. ES-070-C), [^125I]CGP 42112A (cat. no. NEX324025UC) and MicroScint™ 40 (cat. no. 6013641) were purchased from PerkinElmer. CGP 42112A (cat. no. 2569) and PD 123,319 ditrifluoroacetate (cat. no. 1361) were from Tocris Biosciences.
• 1. Growth medium • EX-CELL® CHO DHFR^− medium • 10% FBS, dialysed • 1 mM sodium pyruvate • 2 mM L-glutamine • 2. Harvesting buffer • PBS • 2 mM EDTA • 3. Suspension buffer • 50 mM Tris-HCl, pH 7.4 • 10 mM EDTA • 4. Resuspension buffer • 50 mM Tris-HCl, pH 7.4 • 0.1 mM EDTA • 0.1% sucrose • 5. Binding assay buffer • 50 mM Tris-HCl, pH 7.4 • 5 mM MgCl2 • 1 mM EDTA • 0.1% gelatin • 6. Wash buffer • 50 mM Tris-HCl, pH 7.4 Procedure for Membrane Preparation • Valiscreen® CHO-K1 cells stably expressing the human AT2 receptor were cultured in growth medium. • Cells were seeded into T-175 flasks and grown to 70-80% confluence. • Medium was removed from confluent flasks and cells were washed with warm PBS. • Cells were harvested by incubating with harvesting buffer for 10 min at 37° C., and then transferred to a centrifuge tube on ice. • Cells were centrifuged at 200 g for 5 min at 4° C. • Cell pellets were homogenised in ice-cold suspension buffer. • Homogenates were centrifuged at 40,000 g for 15 min at 4° C. • Pellets were resuspended in ice-cold resuspension buffer and centrifuged at 40,000 g for 15 min at 4° C. • Final pellets were homogenised in ice-cold resuspension buffer. • Protein concentrations were determined by BCA assay method with BSA as standard. Compound Preparation
Compounds were prepared from 10 mM stock solutions in 100% DMSO. Dilutions were made using electronic multichannel pipettes.
• Compounds dilutions were prepared in 100% DMSO at 100× final assay concentration. • Compounds were diluted in 100% DMSO to the appropriate maximal concentration. • 30 μL compound was added to row A. • 21.6 μL of 100% DMSO was added to rows B-H. • Transfer 10 μL from row A into row B (half log dilution). • Transfer 10 μL from row B into row C (half log dilution). • Transfer 10 μL from row C into row D (half log dilution). • Transfer 10 μL from row D into row E (half log dilution). • Transfer 10 μL from row E into row F (half log dilution). • Transfer 10 μL from row F into row G (half log dilution). • Transfer 10 μL from row G into row H (half log dilution). Working Plate Preparation (96-Well Plate) • Compounds were diluted 10-fold in assay buffer. • 10 μL compound solution from dose plate was transferred to corresponding well of working plate. • 90 μL assay buffer was added to the wells of working plate. • Working solutions contained 10% DMSO in assay buffer (1% DMSO final assay concentration). Controls • Total binding (high control) was determined in the absence of unlabelled ligand. A solution of 10% DMSO in assay buffer was prepared. • Non-specific binding (low control) was determined in the presence of a vast excess (10 μM) of PD 123,319. 1 mM stock solution of PD 123,319 in water was diluted 10-fold with 10% DMSO in assay buffer. Assay Plate Preparation (96-Well Plate)
15 μL compound solution was transferred to duplicate wells of assay plate. 5 compounds were tested per plate. 15 μL control solutions were transferred to columns 1 and 12 of assay plate.
In general, Ki refers to a measure of affinity in units of concentration, obtained from inhibition or displacement. Turning to `O=C(O)[C@@H]1C[C@H](N2CCc3ccccc32)CN1C(=O)C(c1ccccc1)c1ccccc1` [Compound 29, (2S,4S)-1-(2,2-Diphenylacetyl)-4-(indolin-1-yl)pyrrolidine-2-carboxylic acid], the Ki is 225 nM.

Regarding `O=C(O)[C@@H]1C[C@H](N2CCCCCc3ccccc32)CN1C(=O)C(c1ccccc1)c1ccccc1` [Compound 13, (2S,4S)-1-(2,2-Diphenylacetyl)-4-(3,4,5,6-tetrahydrobenzo[b]azocin-1(2H)-yl)pyrrolidine-2-carboxylic acid], the Ki was found to be 8.7 nM. Regarding `O=C(O)[C@@H]1C[C@H](N2CCCCc3cc(F)ccc32)CN1C(=O)C(c1ccccc1)c1ccccc1` [Compound 5, (2S,4S)-1-(2,2-Diphenylacetyl)-4-(7-fluoro-2,3,4,5-tetrahydro-1H-benzo[b]azepin-1-yl)pyrrolidine-2-carboxylic acid], the Ki was determined as 9.8 nM. As for `O=C(O)[C@@H]1C[C@@H](N2CCCOc3ccccc32)CN1C(=O)C(c1ccccc1)c1ccccc1` [Compound 26, (2S,4R)-4-(3,4-Dihydrobenzo[b][1,4]oxazepin-5(2H)-yl)-1-(2,2-diphenylacetyl)pyrrolidine-2-carboxylic acid], the figure is 4.1 nM; as for `CN(C)S(=O)(=O)NC(=O)[C@@H]1C[C@H](N2CCCOc3cc(F)c(F)cc32)CN1C(=O)C(c1ccccc1)c1ccccc1` [Compound 39, (2S,4S)-4-(7,8-Difluoro-3,4-dihydrobenzo[b][1,4]oxazepin-5(2H)-yl)-N—(N,N-dimethylsulfamoyl)-1-(2,2-diphenylacetyl)pyrrolidine-2-carboxamide], 10.2 nM. The same measure for `O=C(O)[C@@H]1C[C@H](N2CCCCc3ccccc32)CN1C(=O)C(c1ccccc1)c1ccccc1` [Compound 1, (2S,4S)-1-(2,2-Diphenylacetyl)-4-(2,3,4,5-tetrahydro-1H-benzo[b]azepin-1-yl)pyrrolidine-2-carboxylic acid]: 2.7 nM; for `O=C(O)[C@@H]1C[C@H](N2CCCOc3ccc(F)cc32)CN1C(=O)C(c1ccccc1)c1ccccc1` [Compound 8, (2S,4S)-1-(2,2-Diphenylacetyl)-4-(7-fluoro-3,4-dihydrobenzo[b][1,4]oxazepin-5(2H)-yl)pyrrolidine-2-carboxylic acid]: 1.4 nM. As for `O=C(O)[C@@H]1C[C@H](N2CCOCc3ccccc32)CN1C(=O)C(c1ccccc1)c1ccccc1` [Compound 10, (2S,4S)-4-(2,3-Dihydrobenzo[e][1,4]oxazepin-1(5H)-yl)-1-(2,2-diphenylacetyl)pyrrolidine-2-carboxylic acid], the figure is 148 nM; as for `O=C(O)[C@@H]1C[C@H](N2CCCc3ccccc32)CN1C(=O)C(c1ccccc1)c1ccccc1` [Compound 14, (2S,4S)-4-(3,4-Dihydroquinolin-1(2H)-yl)-1-(2,2-diphenylacetyl)pyrrolidine-2-carboxylic acid], 23.8 nM; as for `O=C(O)[C@@H]1C[C@@H](N2CCCCc3ccncc32)CN1C(=O)C(c1ccccc1)c1ccccc1` [Compound 28, (2S,4R)-1-(2,2-Diphenylacetyl)-4-(2,3,4,5-tetrahydro-1H-pyrido[3,4-b]azepin-1-yl)pyrrolidine-2-carboxylic acid], 33 nM. Take `CN1CCN([C@H]2C[C@@H](C(=O)O)N(C(=O)C(c3ccccc3)c3ccccc3)C2)Cc2ccccc21` [Compound 17, (2S,4S)-1-(2,2-Diphenylacetyl)-4-(1-methyl-1,2,3,5-tetrahydro-4H-benzo[e][1,4]diazepin-4-yl)pyrrolidine-2-carboxylic acid]: the inhibition constant Ki came out at 178 nM.

For the compound `Cc1ccc2c(c1)N([C@@H]1C[C@@H](C(=O)O)N(C(=O)C(c3ccccc3)c3ccccc3)C1)CCCC2` [Compound 23, (2S,4R)-1-(2,2-Diphenylacetyl)-4-(8-methyl-2,3,4,5-tetrahydro-1H-benzo[b]azepin-1-yl)pyrrolidine-2-carboxylic acid], the Ki came to 15.9 nM.
